cytotoxicity, SOX9 levels and Ctnnb1 expression data for two compounds are collected here from patent publication US20180265867A1, “NUCLEIC ACID MOLECULES WITH ENHANCED ACTIVITY” (priority 2015, published 2018).

The subject of series [1] is A2780 human ovarian cancer cells. Nature of the series: Cell viability (ApoTox-Glo Triplex Assay) in A2780 cells. The series is classed as cell-based. The following applies: 10 nM to 1000 nM, 48 h (FIG. 15).
Experimental: Cell viability study of 5-FU and siRNA derivatives bearing 5FU molecules were performed using, ApoTox-Glo™ Triplex Assay kit following manufacturer's protocol. Briefly, A2780 human ovarian cancer cells were seeded in 384 well BD Facon black plates (1000 cells in 50 μL/well) using automated Biomek FX pipetting workstation and incubated at 37° C. for 24 h for cell attachment. Stock solution of 5FU, siRNA-5FU2 and siRNA 5FU5 was prepared in cell culture medium (DMEM) respectively. siRNA-5FU2 and siRNA 5FU5 corresponds to Stat3 siRNA bearing 2 or 5 molecules of 5FU at the 3′end of the sense strand. After 24 h, different volume of stock solution was added to each well using non-contact acoustic dispenser (Echo 555), to obtain a gradient concentration ranging from 10 nM to 1000 nM and incubated for additional 48 h at 37° C. After 48 h, 20 μl of medium was treated with 5 μl of cell viability assay reagent, containing both GF-AFC substrate and bis-AAF-R110 substrate and incubated for 30 min at 37° C. Fluorescence values were recorded at two wavelength sets: 400Ex/505Em (Viability) and 485Ex/520Em (Cytotoxicity) using Envision Multilabel Plate Reader and the cell viability were obtained as a percentage of the untreated control (100% cell viability). […] All the cell experiments were measured in triplicate.
The subject of series [2] is SOX9. Nature of the series: SOX9 expression in MC3T3-E1 cells by real-time PCR. Format: cell-based, mouse. The following applies: MC3T3-E1 cells (FIG. 13). How it is done: (§1) MC3T3-E1 cells were cultured in α-MEM (Sigma-Aldrich, Haverhill, UK) medium containing 10% FBS, 1% L-Glutamine, and 1% antibiotics (PeSt) at 37° C. with 5% CO2. One day prior to the miRNA treatment, 35,000 cells were plated per each well of a 24-well plate. On the experiment day, cells were replaced with 2% heat inactivated-FBS containing α-MEM medium with 1% L-Glutamine, and 1% antibiotics (PeSt). miR-34a-CP (final concentration: 50 nM) was given to the each well. Mirvana scrambled miRNA mimic was used as a negative control.
After 24 hours of transfection, and incubation, RNA extraction was performed by using miRCURY RNA Isolation Kit—Cell and Plant (#300100) and protocol from Exiqon, Vedbæk, Denmark. […] Thereafter, RNA concentrations were measured using NanoDrop ND-1000 from NanoDrop Technologies, Wilmington, Del.
The cDNA was made from the total RNA using High Capacity cDNA reverse transcription kit (Applied Biosystems, USA). […] The qRT-PCR reaction comprised a non-template control of cDNA in order to rule out any non-specific reading. […]
Since overexpression of Ctnnb1 is indicative of osteogenic differentiation of cells, we determined the expression of transcription factor that could be activated. For this purpose, we measured the levels of […] marker SOX9 that is implicated in endochondral ossification.
(In general: Real-time PCR tracks product formation cycle by cycle.)

Series [3] deals with Ctnnb1 (β-Catenin). Nature of the series: Ctnnb1 expression in MC3T3-E1 cells by quantitative RT-PCR. The series is classed as cell-based, mouse. How it is done:
as §1
After 24 hours of transfection, and incubation, RNA extraction was performed by using miRCURY RNA Isolation Kit—Cell and Plant (#300100) and protocol from Exiqon, Vedbæk, Denmark. RNA samples were treated with DNase for 30 minutes at 37 degrees, thereafter inactivated with a DNase inactivation solution (TUTRBO DNase AM2238 thermofisher). Thereafter, RNA concentrations were measured using NanoDrop ND-1000 from NanoDrop Technologies, Wilmington, Del.
The cDNA was made from the total RNA using High Capacity cDNA reverse transcription kit (Applied Biosystems, USA). Reactions were performed on a 96-well Bio-Rad Thermal Cycler PCR System at 37° C. for 60 minutes, and at 95° C. for 5 min respectively. Real-time PCR reactions were performed as follows: 10 μl of 2×TaqMan® Universal PCR Master Mix, no AmpErase® UNG (Applied Biosystems, USA), 9 μl 1:5 diluted cDNA, and 1 μl of TaqMan gene specific assay mix. Final volume of the reaction mix was 20 uL. Internal control gene beta-actin (ACTB) (Applied Biosystems, USA) was selected as control for normalization of TaqMan data. The qRT-PCR reaction comprised a non-template control of cDNA in order to rule out any non-specific reading. Taqman probes for Ctnnb1, Sox9, Actb, were obtained from Applied Biosystems. The qRT-PCR amplification was carried out using the Bio-Rad qRT-PCR Thermocycler.
In order to achieve the transfection reagent free delivery of therapeutically potential microRNAs, we tested miR-34a and compared with miR-34a-CP. Since microRNAs unlike siRNAs have multiple targets in the cell, and there is a necessity to reduce the off-target and undesirable effects if any, we have also designed siRNA model siR-34a-CP as stated above. We have used mouse preosteoblast cell line MC3T3-E1 obtained from calvarial bone for the in-vitro functional validation of cell-penetrating molecules. On the day before transfection experiment, 35000 MC3T3-E1 cells were cultured per each well of the 24-well culture plate in alpha-Minimum Essential Medium with 10% heat inactivated FBS, 1% L-Glutamine, 1% antibiotics (Pe/St). […] 5% CO2. Thereafter, RNA extraction, cDNA preparation, and quantitative real-time PCR was performed by using TaqMan procedure.

d = 2'-deoxy (DNA); r = 2'-OH (RNA)

Regarding `O=c1[nH]cc(F)c(=O)[nH]1` [5FU, 5-Fluorouracil], in series [1], the cytotoxicity result is “dose dependent cytotoxicity”.
As for “miR-34a-CP: Cell penetrating miR-34a, sense SEQ ID NO: 22 with dA5, antisense SEQ ID NO: 23 (sense CAAUCAGCAAGUAUACUGCCCUAAAAA; antisense UGGCAGUGUCUUAGCUGGUUGU; sense: sugars from the 5' end r22 d5, backbone not given here; antisense: RNA, backbone not given here)”, the SOX9 levels entry in series [2] was “upregulated”. Further, the Ctnnb1 expression result is given as “up regulation of Ctnnb1” in series [3] (50 nM, 24 h, alone without transfection reagent (FIG. 11)) and “up regulation of Ctnnb1” in series [3] (without transfection reagent MaTra (FIG. 12)).
